# From ChEMBL document CHEMBL3792384, “Design, synthesis and bioactivity of novel phthalimide derivatives as acetylcholinesterase inhibitors” (Bioorg Med Chem Lett, 2016)
# The source made the active and inactive calls. The rule behind the calls is not given here.
# Target: Acetylcholinesterase (Electrophorus electricus, UniProt O42275)
# Test: Inhibition of electric eel AChE preincubated for 15 mins followed by addition of acetylthiocholine iodide substrate by Ellman's method-based spectrophotometric analysis
# Acetylcholinesterase, sequence (O42275 whole entry): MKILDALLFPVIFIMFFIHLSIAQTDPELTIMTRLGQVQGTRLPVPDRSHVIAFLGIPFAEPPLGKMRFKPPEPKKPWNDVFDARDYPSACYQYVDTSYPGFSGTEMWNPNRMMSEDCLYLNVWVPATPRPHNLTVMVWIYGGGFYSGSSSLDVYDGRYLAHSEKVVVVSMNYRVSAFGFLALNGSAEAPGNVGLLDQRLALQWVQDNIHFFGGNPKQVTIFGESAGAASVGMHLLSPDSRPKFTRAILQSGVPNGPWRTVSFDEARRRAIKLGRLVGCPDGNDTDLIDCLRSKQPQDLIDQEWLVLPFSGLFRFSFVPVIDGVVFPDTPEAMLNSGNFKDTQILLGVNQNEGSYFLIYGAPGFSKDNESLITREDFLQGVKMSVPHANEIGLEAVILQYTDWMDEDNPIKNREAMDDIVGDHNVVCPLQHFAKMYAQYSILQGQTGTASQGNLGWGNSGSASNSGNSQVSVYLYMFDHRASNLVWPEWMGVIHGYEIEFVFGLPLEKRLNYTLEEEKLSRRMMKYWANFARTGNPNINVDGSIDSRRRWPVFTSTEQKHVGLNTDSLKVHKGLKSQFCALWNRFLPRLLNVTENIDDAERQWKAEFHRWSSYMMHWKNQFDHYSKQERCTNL
row,Structure (SMILES),IC50 [nM]
1,O=C1c2ccccc2C(=O)N1CCCCCCCN1CCN(Cc2ccc(Cl)cc2)CC1,655
2,COc1ccc(CN2CCN(CCCCCCCCCCN3C(=O)c4ccccc4C3=O)CC2)cc1,712
3,O=C1c2ccccc2C(=O)N1CCCCCCCCCCN1CCN(Cc2ccc(Cl)cc2)CC1,1260
4,O=C1c2ccccc2C(=O)N1CCCCCCN1CCN(Cc2ccc(Cl)cc2)CC1,389
5,COc1ccc(CN2CCN(C/C=C/CN3C(=O)c4ccccc4C3=O)CC2)cc1,489
6,COc1cc2c(cc1OCCCN1CCN(c3ccccc3OC)CC1)C(C)C(C)C(=O)O2 (stereo not drawn),36
7,COc1ccc(CN2CCN(CCCCCCCCN3C(=O)c4ccccc4C3=O)CC2)cc1,699
8,COc1ccc(CN2CCN(CCCN3C(=O)c4ccccc4C3=O)CC2)cc1,508
9,O=C1c2ccccc2C(=O)N1CCCCCCCCCN1CCN(Cc2ccccc2)CC1,40.7
10,O=C1c2ccccc2C(=O)N1CCCCCN1CCN(Cc2ccccc2)CC1,35.4
11,O=C1c2ccccc2C(=O)N1CCCCCCCCN1CCN(Cc2ccc(Cl)cc2)CC1,440
12,O=C1c2ccccc2C(=O)N1CCCCCCN1CCN(Cc2ccccc2)CC1,100
13,O=C1c2ccccc2C(=O)N1C/C=C/CN1CCN(Cc2ccccc2)CC1,13.6
14,O=C1c2ccccc2C(=O)N1CCCCCCCN1CCN(Cc2ccccc2)CC1,53.8
15,COc1ccc(CN2CCN(CCCCCCCN3C(=O)c4ccccc4C3=O)CC2)cc1,448
16,COc1ccc(CN2CCN(CCCCN3C(=O)c4ccccc4C3=O)CC2)cc1,403

row,Structure (SMILES),IC50 [nM]
1,O=C1c2ccccc2C(=O)N1CCN1CCN(Cc2ccccc2)CC1,91.1
2,COc1ccc(CN2CCN(CCCCCCCCCN3C(=O)c4ccccc4C3=O)CC2)cc1,657
3,O=C1c2ccccc2C(=O)N1CCCCN1CCN(Cc2ccccc2)CC1,18.4
4,O=C1c2ccccc2C(=O)N1CCCCCCCCN1CCN(Cc2ccccc2)CC1,204
5,O=C1c2ccccc2C(=O)N1CCCCCN1CCN(Cc2ccc(Cl)cc2)CC1,720
6,COc1ccc(CN2CCN(CCCCCCN3C(=O)c4ccccc4C3=O)CC2)cc1,687
7,O=C1c2ccccc2C(=O)N1CCCCCCCCCN1CCN(Cc2ccc(Cl)cc2)CC1,644
8,O=C1c2ccccc2C(=O)N1CCCN1CCN(Cc2ccccc2)CC1,123
9,O=C1c2ccccc2C(=O)N1C/C=C/CN1CCN(Cc2ccc(Cl)cc2)CC1,384
10,COc1ccc(CN2CCN(CCN3C(=O)c4ccccc4C3=O)CC2)cc1,466
11,O=C1c2ccccc2C(=O)N1CCN1CCN(Cc2ccc(Cl)cc2)CC1,1100
12,O=C1c2ccccc2C(=O)N1CCCCN1CCN(Cc2ccc(Cl)cc2)CC1,1420
13,COc1ccc(CN2CCN(CCCCCN3C(=O)c4ccccc4C3=O)CC2)cc1,548
14,O=C1c2ccccc2C(=O)N1CCCN1CCN(Cc2ccc(Cl)cc2)CC1,1430
15,O=C1c2ccccc2C(=O)N1CCCCCCCCCCN1CCN(Cc2ccccc2)CC1,350

# Target: Cholinesterase (Equus caballus) (UniProt P81908)
# Test: (§1) Inhibition of equine serum BChE using butyrylthiocholine iodide as substrate by Ellman's method-based spectrophotometric analysis
# Cholinesterase (Equus caballus), sequence (P81908 whole entry): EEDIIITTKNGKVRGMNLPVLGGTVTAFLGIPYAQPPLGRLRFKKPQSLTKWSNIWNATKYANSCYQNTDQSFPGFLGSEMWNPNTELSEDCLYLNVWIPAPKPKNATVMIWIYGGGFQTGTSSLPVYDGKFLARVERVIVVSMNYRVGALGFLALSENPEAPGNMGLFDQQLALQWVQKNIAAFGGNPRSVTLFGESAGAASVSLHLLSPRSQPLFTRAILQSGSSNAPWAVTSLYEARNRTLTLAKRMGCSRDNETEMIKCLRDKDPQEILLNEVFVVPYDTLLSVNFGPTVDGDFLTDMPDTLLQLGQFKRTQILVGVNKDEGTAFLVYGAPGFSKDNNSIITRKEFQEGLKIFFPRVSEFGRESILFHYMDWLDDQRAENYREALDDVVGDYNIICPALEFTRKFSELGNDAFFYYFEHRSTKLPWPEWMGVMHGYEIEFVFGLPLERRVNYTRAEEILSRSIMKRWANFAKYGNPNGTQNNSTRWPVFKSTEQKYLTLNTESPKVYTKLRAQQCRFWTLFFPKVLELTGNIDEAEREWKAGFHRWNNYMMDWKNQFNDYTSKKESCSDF
row,Structure (SMILES),inhibition
1,O=C1c2ccccc2C(=O)N1CCCCCCCCN1CCN(Cc2ccccc2)CC1,Active

# Target: Cholinesterase (Equus caballus, UniProt P81908)
# Test: as §1
# Cholinesterase, sequence (P81908 whole entry): as above
row,Structure (SMILES),IC50 [nM]
1,O=C1c2ccccc2C(=O)N1CCCCCCCCCN1CCN(Cc2ccccc2)CC1,33.1
